PMC9851200, “Multiparameter phenotypic screening for endogenous TFEB and TFE3 translocation identifies novel chemical series modulating lysosome function” (Autophagy, 2022)
Where two headings read alike, the source gives them in different places.

Assays:
endogenous TFE3 = assay: TFE3 nuclear translocation, immunocytochemistry high-content imaging; type: cell-based
SH-SY5Y cells [1] = assay: AK (adenylate kinase) release ToxiLight cytotoxicity assay; also: reference of the scale not given here
SH-SY5Y cells [2] = tested on: SH-SY5Y cells; also: reference of the scale not given here
SH-SY5Y cells [3] = assay: Nuclear count from microscopy images (cellular growth and toxicity); also: reference of the scale not given here
endogenous TFEB = assay: TFEB nuclear translocation, immunocytochemistry high-content imaging; type: cell-based
[4] = PKIS2 primary screening, DQ Red BSA intensity
[5] = PKIS2 primary screening, DQ Red BSA spot count

Compound	TFE3 % (endogenous TFE3; PKIS2 primary screening) [%]	AK (SH-SY5Y cells [1]; PKIS2 primary screening)	DQ Intensity (SH-SY5Y cells [2]; PKIS2 primary screening)	DQ Spot (SH-SY5Y cells [2]; PKIS2 primary screening)	Nuclear Count (SH-SY5Y cells [3]; PKIS2 primary screening)	TFEB % (endogenous TFEB; PKIS2 primary screening) [%]	DQ Intensity (SH-SY5Y cells [2]; [4])	DQ Spot (SH-SY5Y cells [2]; [5])	TFE3 % (endogenous TFE3; PKIS2 primary screen) [%]	AK (SH-SY5Y cells [1]; PKIS2 primary screen)	DQ Intensity (SH-SY5Y cells [2]; PKIS2 primary screen, DQ Red BSA intensity)	DQ Spot (SH-SY5Y cells [2]; PKIS2 primary screen, DQ Red BSA spot count)	Nuclear Count (SH-SY5Y cells [3]; PKIS2 primary screen)	TFEB % (endogenous TFEB; PKIS2 primary screen) [%]
Nc1nc(N)c2nc(-c3ccccc3)[nH]c2n1 [UNC10225149A]	9.26	120.42	89.50	98.14	98.36	6.49								
Cc1c(Cn2c3ccccc3n3c(=O)cc(N4CCOCC4)nc23)cccc1C(F)(F)F [UNC10225195A]	10.62	76.50	86.55	100.26	108.51	7.03								
COc1cc(Nc2ccnc3ccc(C(F)(F)F)cc23)cc(OC)c1OC [UNC10225109A]	7.95	98.24			107.71	5.89	93.31	111.66						
Cc1ccc(Nc2ccnc(Nc3ccc(C)c(F)c3)n2)cc1O [GW582868]	12.77	95.37			87.67	8.86	80.99	94.80						
Nc1nc(-c2ccccn2)c(-c2ccnc3ccccc23)s1 [UNC10225201A]	10.28	81.66			144.30	4.25	97.54	92.32						
COc1ccc(Nc2nccc(N3CCC(NC(=O)c4cc5ccccc5s4)C3)n2)cc1 (stereo not drawn) [GSK1379738]	9.69	106.01			101.04	5.33	52.05	80.56						
COc1ccc(Nc2nccc(NCCNC(=O)c3cc4ccccc4s3)n2)cc1 [GSK1379896]	17.76	100.12			88.87	5.04	100.56	107.99						
COc1cccc(CC(=O)N2CCc3cc(-c4cn(C)c5ncnc(N)c45)ccc32)c1 [UNC10224987A]	10.50	97.56	104.40	98.28	115.64	11.97								
Fc1ccc(Nc2nccc(-c3c(-c4ccc(Cl)cc4)nn4ncccc34)n2)cc1F [UNC10225073A]	12.07	84.83	129.98	108.87	119.55	10.16								
Cc1nn2c(=O)cc(N3CCOCC3)nc2n1Cc1cccc(Cl)c1Cl [UNC10225178A]	28.29	116.91	66.02	117.74	93.42	7.97								
O=C(Nc1cccc(-c2nn3ncccc3c2-c2ccnc(Nc3cccc(C(F)(F)F)c3)n2)c1)c1c(F)cccc1F [UNC10225174A]	11.86	107.72	102.81	113.18	93.11	2.89								
Cc1cc(-c2c(-c3ccc(F)cc3)ncn2CCCN2CCOCC2)nc(N)n1 [UNC10225357A]	18.76	146.53	102.69	106.97	103.52	6.16								
NC(=O)Nc1sc(-c2ccc(F)cc2)cc1C(N)=O [UNC10225118A]	11.46	76.60	77.43	92.26	81.29	7.01								
COc1ccc(COc2cc(-n3cnc4ccccc43)sc2C(N)=O)cc1 [UNC10225127A]	11.50	69.30	119.47	107.75	109.00	4.73								
Cl.Cl.NCC(NC(=O)c1cc(-c2ccccc2)c(-c2ccnc3[nH]ccc23)s1)c1ccccc1 (stereo not drawn) [UNC10225466A]	18.77	133.16			129.43	5.04	104.29	96.16						
CN1CCC(n2cnc(-c3ccc(F)cc3)c2-c2ccnc(NC3CCNCC3)n2)CC1 [UNC10225443A]	14.45	75.10	104.65	93.05	105.97	5.73								
Cl.Cl.Cl.Fc1ccc(-c2ncn(C3CCNCC3)c2-c2ccnc(Nc3ccccc3)n2)cc1 [UNC10225420A]	15.52	105.24	95.71	100.38	78.56	8.15								
COC(=O)Nc1nc2ccc(Oc3ccc(NC(=O)Nc4cccc(SC)c4)cc3)cc2[nH]1 [GW697999]	19.88	75.30			71.32	5.11	145.78	122.82						

Compound	TFE3 % (endogenous TFE3; PKIS2 primary screening) [%]	AK (SH-SY5Y cells [1]; PKIS2 primary screening)	DQ Intensity (SH-SY5Y cells [2]; PKIS2 primary screening)	DQ Spot (SH-SY5Y cells [2]; PKIS2 primary screening)	Nuclear Count (SH-SY5Y cells [3]; PKIS2 primary screening)	TFEB % (endogenous TFEB; PKIS2 primary screening) [%]	DQ Intensity (SH-SY5Y cells [2]; [4])	DQ Spot (SH-SY5Y cells [2]; [5])	TFE3 % (endogenous TFE3; PKIS2 primary screen) [%]	AK (SH-SY5Y cells [1]; PKIS2 primary screen)	DQ Intensity (SH-SY5Y cells [2]; PKIS2 primary screen, DQ Red BSA intensity)	DQ Spot (SH-SY5Y cells [2]; PKIS2 primary screen, DQ Red BSA spot count)	Nuclear Count (SH-SY5Y cells [3]; PKIS2 primary screen)	TFEB % (endogenous TFEB; PKIS2 primary screen) [%]
CC(C)S(=O)(=O)N1CCN(Cc2ccc3c(c2)nc(NC(=O)c2ccsc2)n3C[C@H](O)c2ccccc2)CC1 [GW635815]	6.25	78.91			125.41	6.81	100.23	98.01						
O=C(Nc1n[nH]c2cc(-c3cccc(F)c3F)ccc12)C1CC1 [SB-733894]	15.11	80.72			112.33	5.04	66.38	85.29						
Oc1ccc2ncnc(Nc3ccc(OCc4ccccc4)cc3)c2c1 [UNC10225360A]	13.64	98.47			101.58	5.47	120.31	114.21						
O=C(NCc1cccs1)c1cc(C(=O)c2c(Cl)cccc2Cl)c[nH]1 [UNC10225502A]									7.89	136.34	112.22	106.20	105.30	6.92
OCCCNc1nccc(-c2c(-c3cccc(C(F)(F)F)c3)nn3cc(C(F)(F)F)ccc23)n1 [UNC10225352A]	11.93	111.75	93.14	97.34	112.73	4.95								
Cn1cncc1-c1ccc2ncnc(Nc3ccc(OCc4ccccc4)cc3)c2c1 [UNC10225497A]	13.09	50.65			104.34	8.56	100.86	83.02						
CC(C)Nc1cc(-c2ccc3c(N)n[nH]c3c2)nc(N)n1 [GSK2221681]	7.71	98.58			122.37	4.14	78.82	81.03						
CN(c1ccc(NC(=O)N2CCN(CCCN3CCOCC3)CC2)cc1)c1ccnc(Nc2ccc(CS(C)(=O)=O)cc2)n1 [GW830899]	11.27	75.66			123.35	7.11	91.97	98.21						
Cc1ccc(NC(=O)c2ccc(Cl)c(Cl)c2)cc1-c1ccc(C(=O)Nc2ccncc2)cc1 [UNC10225151A]	10.75	125.83	92.58	82.55	117.17	6.14								
Cc1c(Cn2ccn3c(=O)cc(N4CCOCC4)nc23)cccc1C(F)(F)F [UNC10243861A]	6.09	106.43	74.52	79.14	146.89	1.67								
Cc1nnc(-c2ccc(C)c(-c3ccc(C(=O)O)cc3)c2)o1 [UNC10225501A]	10.21	95.30	75.58	83.30	117.94	7.30								
c1ccc(-c2cc(-c3c[nH]nc3-c3ccccn3)ccn2)cc1 [UNC10225169A]	6.57	72.24			139.75	2.50	83.52	97.79						
Nc1nc(-c2nccs2)c(-c2ccnc3ccccc23)s1 [UNC10225429A]	19.15	94.26			118.67	3.83	102.85	117.25						
CN(c1ccc2c(c1)nc(NCc1ccc(F)cc1)n2C)c1ccnc(Nc2ccc(CS(C)(=O)=O)cc2)n1 [GW813244]	13.77	87.46			104.49	4.30	93.66	106.18						
Cl.Oc1cc(-c2nc(-c3ccccc3)[nH]c2-c2ccncc2)ccc1Cl [UNC10225128B]	11.76	91.39			80.05	6.45	96.34	92.51						
Nc1nc(-c2ccccc2F)c(-c2ccnc3ccccc23)s1 [UNC10225301A]	14.12	75.40			129.96	2.45	64.84	87.10						
COc1cccc(CNC(=O)NC2CCN(c3ccnc(Nc4ccc(F)cc4)n3)C2)c1 (stereo not drawn) [GSK1379723]	22.56	98.00			83.60	8.63	104.41	106.33						
